Experimental findings from patent US20120252792A1, “METHODS AND COMPOSITIONS FOR MODULATING RHO-MEDIATED GENE TRANSCRIPTION” (THE REGENTS OF THE UNIVERSITY OF MICHIGAN, priority 2009, published 2012) are described below.

Common to all, as to assay type: cell-based, human
The subject of test [1] is Rho/MKL1 pathway. The experiment in a line: SRE.L-firefly luciferase reporter (dual luciferase assay), Gα12QL-transfected PC-3 cells. The conditions noted are these: Homo sapiens, 19 h; for inhibition at 10 µM / inhibition at 100 µM: DMSO alone = 0%; for inhibition at 10 µM: read-out: % inh SRE.L (10 μM); for inhibition at 100 µM: read-out: % inh SRE.L (100 μM). The protocol:
(§1) Dual Luciferase Assay: Seed PC-3 prostate cancer cells (40,000 cells/well) were grown in 96-well plates in 10% FBS containing DMEM medium. Cells were transiently transfected with the Gα12QL activator of the Rho/MKL1 pathway, along with the SRE.L-firefly luciferase reporter construct for 6 hours. Additionally, cells were co-transfected with the TK-Renilla luciferase reporter as an indicator of non-specific compound effects. Various concentrations of selected compounds were added to the 96-well plates. Plates were incubated for 19 hours at 37° C. and 5% CO2 in 0.5% FBS containing DMEM medium. Cells were lysed with 1X Passive Lysis Buffer (Promega). Plates were incubated for 30 minutes at room temperature. Luminescence counts were read with a Victor2 (Perkin-Elmer) plate reader.

In test [2] the test system is PC-3 prostate cancer cells. The experiment in a line: WST1 cell viability assay. Particulars: Homo sapiens, PC-3 cells, just before lysis; for inhibition at 10 µM: PC-3, 10 μM, read-out: % inh WST-1 (10 μM); for inhibition at 100 µM: PC-3, 100 μM, read-out: % inh WST-1 (100 μM). How it is done: WST1 Cell Viability Assay: One hour prior to cell lysis for the dual luciferase assay, 10 μl per well of WST1 reagent (Roche) was added to the 96-well plates. Plates were incubated for 1 hour at 37° C. and 5% CO2. Cell viability was measured by WST1 absorbance at 450 nm with a Victor2 (Perkin-Elmer) plate reader.

In test [3] the test system is TK-Renilla luciferase reporter. The experiment in a line: TK-Renilla (pRL-TK) luciferase reporter, indicator of non-specific compound effects. Particulars: Homo sapiens, PC-3, 19 h, PC-3 cells; for inhibition at 10 µM: read-out: % inh PRL-TK (10 μM); for inhibition at 100 µM: read-out: % inh PRL-TK (100 μM). How it is done: as §1
On the technique in general: A reporter such as luciferase makes a cellular process visible.

Each structure is given as a SMILES string.

Consider `O=C(CONC(=O)c1cc(C(F)(F)F)cc(C(F)(F)F)c1)Nc1ccc(Cl)cc1` [Compound 1, N-(2-(4-chlorophenylamino)-2-oxoethoxy)-3,5-bis(trifluoromethyl)benzamide], for which, in test [1], inhibition was half-maximal at 4.7 µM (IC50). Also, the values for the inhibition at 10 µM in test [1], in test [2] and in test [3] were 71%, 42% and 53%, respectively. Further, the results for the inhibition at 100 µM in test [1], in test [2] and in test [3] were 100%, 91% and 89%, respectively.
With `O=C(Nc1ccccc1C(=O)Nc1ccc(Cl)cc1)c1cc(C(F)(F)F)cc(C(F)(F)F)c1` [Compound 16, N-(2-(4-chlorophenylcarbamoyl)phenyl)-3,5-bis(trifluoromethyl)benzamide], the IC50 (usually the concentration that inhibits the measured activity by half) in test [1] is 18 µM. The inhibition at 10 µM amounted to 34% in test [1], 0% in test [2] and 0% in test [3].
Consider `O=C(CC1CCCCN1C(=O)c1cc(C(F)(F)F)cc(C(F)(F)F)c1)Nc1ccc(Cl)cc1` (stereo not shown) [Compound 26, 2-(1-(3,5-bis(trifluoromethyl)benzoyl)piperidin-2-yl)-N-(4-chlorophenyl)acetamide], for which, in test [1], the IC50 stood at 9.9 µM, the inhibition at 10 µM was found to be 41% and the inhibition at 100 µM was 85%. In addition, in test [2], the inhibition at 10 µM was 0% and the inhibition at 100 µM was 27%. In addition, in test [3], the inhibition at 10 µM stood at 0% and the inhibition at 100 µM was 76%.
For the compound `O=C(Nc1ccc(Cl)cc1)c1cccc(NC(=O)c2cc(C(F)(F)F)cc(C(F)(F)F)c2)c1` [Compound 14, N-(3-(4-chlorophenylcarbamoyl)phenyl)-3,5-bis(trifluoromethyl)benzamide], the IC50 in test [1] worked out at 1.7 µM. In addition, the results for the inhibition at 10 µM in test [1], in test [2] and in test [3] were 79%, 38% and 0%, respectively.
On to `O=C(Nc1ccc(Cl)cc1)C1CCN(C(=O)c2cc(C(F)(F)F)cc(C(F)(F)F)c2)C1` (stereo not shown) [Compound 27, 1-(3,5-bis(trifluoromethyl)benzoyl)-N-(4-chlorophenyl)pyrrolidine-3-carboxamide], for which the IC50 in test [1] was 15.6 µM. Also, the results for the inhibition at 10 µM in test [1], in test [2] and in test [3] were 30%, 0% and 14%, respectively. For the same compound, the inhibition at 100 µM amounted to 100% in test [1], 86% in test [2] and 92% in test [3].
For the compound `O=C(NC1CC(=O)N(c2ccc(Cl)cc2)C1)OCc1cc(C(F)(F)F)cc(C(F)(F)F)c1` (stereo not shown) [Compound 45, 3,5-bis(trifluoromethyl)benzyl (1-(4-chlorophenyl)-5-oxopyrrolidin-3-yl)carbamate], in test [1], the midpoint of inhibition, the IC50, lay at 13.4 µM; the inhibition at 10 µM was 9.4%; the inhibition at 100 µM stood at 68%. For the same compound, in test [2], the inhibition at 10 µM was 0.6% and the inhibition at 100 µM was 8.4%.
Regarding `O=C(NC1CC(=O)N(c2ccc(Cl)cc2)C1)c1cc(F)cc(F)c1` (stereo not shown) [Compound 49, N-(1-(4-chlorophenyl)-5-oxopyrrolidin-3-yl)-3,5-difluorobenzamide], in test [1], the inhibition at 10 µM was -8.4% and the inhibition at 100 µM came to 13.4%. Moreover, in test [2], the inhibition at 10 µM is -6.1% and the inhibition at 100 µM worked out at 0.6%.
Take `O=C(NC1CC(=O)N(c2ccc(Cl)cc2)C1)c1cc(C(F)(F)F)cc(C(F)(F)F)c1` (stereo not shown) [Compound 47, N-(1-(4-chlorophenyl)-5-oxopyrrolidin-3-yl)-3,5-bis(trifluoromethyl)benzamide]: in test [1], the IC50 came to 18 µM, the inhibition at 10 µM came out at 18% and the inhibition at 100 µM was 57.8%. In test [2], the inhibition at 10 µM was -0.8% and the inhibition at 100 µM stood at 14.3%.
